Laboratory results from US11207277B2, “Methods of treating diseases associated with high-fat diet and vitamin a deficiency using retinoic acid receptor agonists” (Cornell University, priority 2013, dated 2021).
“Also recorded” adds a separate entry of the source.

How the values were obtained:
4-hydroxynonenal (4-HNE) = test: 4-HNE staining of pancreas sections, HF-fed mice; type: in vivo; settings: HF diet mice, AC261066 1.5 mg/100 ml drinking water 3 months; vs HF-vehicle
Experimental: AC261066 was dissolved in dimethyl sulfoxide (DMSO) at the concentration of 1.5 mg/ml, and diluted in the drinking water for mice to the final concentration of 1.5 mg/100 ml.
(§1) WT male C57/BL6 male mice were maintained on either a standard laboratory chow-fed diet (CFD) with 13% kcal fat, (diet #5053, Lab Diet, Inc, St. Louis, Mo.) or a high fat, western style diet (HFD) with 60% kcals from fat, (diet #58126, Lab Diet, Inc., St. Louis, Mo.) for 4 months. One month after the start of the high fat diet treatment, the high fat diet group was further split into 2 groups for 3 months: i) high fat diet and the drinking water containing 1% DMSO; ii) high fat diet and the drinking water containing 1.5 mg/100 ml AC261066, a specific RARβ agonist. Then mice were sacrificed by cervical dislocation. Blood and various tissue samples were harvested.
Paraffin-embedded sections (from two to four mice per group) were deparaffinized and rehydrated, and antigen retrieval was performed using an antigen unmasking solution (Vector Laboratories, H-3300). After quenching endogenous peroxidase with 3% H2O2, the tissue sections were blocked with the blocking reagent (from the M.O.M. kit from Vector Laboratories). Then, tissue sections were incubated with a 4-HNE antibody (1:400; mouse monoclonal antibody: Abcam, ab48506) overnight at 4° C. […]

c-peptide = test: c-peptide/glucagon immunofluorescence of pancreatic islets, HF-fed mice; type: in vivo
Experimental: Immunofluorescence assays on cells and tissue sections were performed as previously described (29). Briefly, differentiated samples were fixed using 4% (w/v) paraformaldehyde and membrane permeabilization (for cells only) was done with 0.3% (w/v) Triton-X 100 (Sigma). Unspecific sites were blocked using 2% BSA for 30 min prior to incubation with rabbit polyclonal anti-PDX1 (Millipore, 06-1379, 1:1000), rabbit anti-C-Peptide (Cell Signaling, 4593, 1:500, Danvers, Mass.) and mouse monoclonal anti-Glucagon (Abcam, ab10988, 1:200) primary antibodies. Phalloidin-TRITC (Millipore, FAK100, 1:1000, Billerica, Mass.) was used to stain the actin stress fiber network (F-actin). Nuclei were stained using DAPI contained in Vectashield® mounting medium for fluorescence (Vector labs, Burlingame, Calif.). Quantitation of C-peptide positive stained cells and islet surface area was performed using MS-Elements Advanced Research software (Nikon).
WT male C57/BL6 male mice were maintained on either a standard laboratory chow-fed diet (CFD) with 13% kcal fat, (diet #5053, Lab Diet, Inc, St. Louis, Mo.) or a high fat, western style diet (HFD) with 60% kcals from fat, (diet #58126, Lab Diet, Inc., St. Louis, Mo.) for 4 months. […]

RARβ2 [1] = test: Semi-quantitative PCR of pancreatic tissue, HF-fed mice; type: in vivo; settings: HF diet mice + AC261066 vs HF-vehicle
Excerpt: as §1
(§2) Total RNA was extracted from mouse tissues using TRIzol reagent (Life technologies) and (1 μg) was used to synthesize cDNA. cDNA synthesis was performed at 42° C. for 1 h in a final volume of 20 μl using qScript (Quanta, MD). Semi-quantitative PCR were performed Taq DNA polymerase (Invitrogen, CA). Three step PCR was run as follows: 94° C. for 30 s, 58-64° C. for 45 s for primer annealing and 72° C. for 1 min for primer extension. The number of cycles for each primer pair for amplification in the linear range was determined experimentally. PCR products were resolved on 2% agarose gels and visualized by staining with ehtidium bromide. Primers for gene expression used were as follows: […]

RARβ2 [2] = test: Semi-quantitative PCR of pancreatic tissue, LRAT -/- vitamin A deficient mice; type: in vivo; settings: AC261066 for 8 weeks
Experimental: FIG. 10. Gene expression of RARβ2 in pancreatic tissue from LRAT −/− vitamin A sufficient mice (VAS, normal control diet), LRAT −/− vitamin A deficient (VAD) mice, and LRAT −/− vitamin A deficient (VAD) mice treated with AC261066 for 8 weeks.
as §2

[3] = Serum triglyceride level measurement; type: in vivo, mice; settings: HF+AC261066 feeding vs CF controls
Excerpt: as §1
The analysis of serum triglyceride levels was carried out using a bichromatic assay at the Laboratory of Comparative Pathology of the Memorial Sloan-Kettering Cancer Center. Chow-fed diet (CFD) n=2; high fat diet (HFD) n=3; high fat diet+AC261066 (HFDAC) n=5.

[4] = tested on: retinyl palmitate and retinol; test: HPLC analysis of liver retinoids; type: in vivo, mice
Excerpt: as §1
The frozen liver tissue samples (˜100 mg) were homogenized in 500 μl cold phosphate-buffered saline (PBS). In addition, 100 μl serum was diluted in cold PBS to total volume of 500 μl. Retinyl acetate was added to each sample before the retinoid extraction for the calculation of extraction efficiency. The retinoids were extracted into 350 μl of organic solution (acetonitrile/butanol, 50:50, v/v) in the dark. The high performance liquid chromatography (HPLC) was performed using a Waters Millennium system (Waters). Each sample (100 μl of the 350 μl) was loaded onto an analytical 5-μm reverse phase C18 column (Vydac, Hesperia, Calif.) and eluted at a flow rate of 1.5 ml/min. Two mobile phase gradient systems were used. Retinoids were identified by HPLC based on two criteria: an exact match of the retention times of unknown peaks with those of authentic retinoid standards and identical UV light spectra (220-400 nm) of unknowns against spectra from authentic retinoid standards during HPLC by the use of a photodiode array detector. The amounts of retinoids were calculated from the areas under the peaks detected at the wave-length of 325 nm. The levels of retinol and retinyl esters were normalized to the tissue weight.

all-trans retinol = test: HPLC analysis of serum retinol; type: in vivo; settings: CF, HF and HF+AC261066 fed mice
Excerpt: as §1
The frozen liver tissue samples (˜100 mg) were homogenized in 500 μl cold phosphate-buffered saline (PBS). In addition, 100 μl serum was diluted in cold PBS to total volume of 500 μl. Retinyl acetate was added to each sample before the retinoid extraction for the calculation of extraction efficiency. The retinoids were extracted into 350 μl of organic solution (acetonitrile/butanol, 50:50, v/v) in the dark. The high performance liquid chromatography (HPLC) was performed using a Waters Millennium system (Waters). […] The amounts of retinoids were calculated from the areas under the peaks detected at the wave-length of 325 nm. […]

TNF-α = test: Semi-quantitative PCR kidney, TNF-α; type: in vivo; settings: HF diet mice + AC261066
Excerpt: as §1
as §2, with “(Invitrogen.” for “(Invitrogen,”

RARβ2 [5] = test: Semi-quantitative PCR kidney, RARβ2; type: in vivo; settings: HF diet mice + AC261066
Excerpt: as §1
as §2, with “(Invitrogen.” for “(Invitrogen,”

[6] = HF diet mice + AC261066 or CD1530 vs controls

With CCCCOCCOc1nc(-c2ccc(C(=O)O)c(F)c2)sc1C [AC261066] the “4-HNE staining intensity (oxidative stress) in pancreatic islets” value (4-hydroxynonenal (4-HNE)) was “reduces oxidative stress in the pancreatic islets; also recorded: markedly lower 4-HNE staining intensity levels”, the “c-peptide level in pancreatic islets” value (c-peptide; HF diet + AC261066 vs HF diet mice) was “slightly reduces expression of c-peptide; also recorded: slightly decreased c-peptide level” and the “c-peptide staining in pancreatic islets” value (c-peptide; HF+AC261066 fed mice vs control diet controls) was “marked increase in c-peptide staining”. For the same compound, the “RARβ (RARβ2) mRNA levels in pancreas” value (RARβ2 [1]) was “increased the RAR 32 mRNA levels; also recorded: increased compared to HF-vehicle treated mice”, the “RARβ2 mRNA levels in pancreas” value (RARβ2 [2]) was “increased the RARβ2 mRNA levels” and the serum triglyceride levels [3] was “does not increase triglyceride levels; also recorded: does not affect serum triglyceride levels”. The “higher levels of retinyl palmitate in the livers compared to HF-vehicle treated mice” value ([4]; HF diet mice + AC261066) was 55%, the “liver retinol compared to controls” value [4, 6] was “significantly lowered” and the “liver retinyl palmitate compared to controls” value [4, 6] was “significantly lowered”. The “vitamin A deficiency in liver caused by high fat diet” value ([4]; HFD+AC261066) was “partially reversed”, the “serum levels of all-trans retinol” value (all-trans retinol) was “not different” and the “mRNA levels of TNF-α in kidney” value (TNF-α) was “reduces the levels of TNF-alpha”. The “RARβ2 mRNA levels in kidney” value (RARβ2 [5]) was “restores RAR beta and LRAT mRNA levels; also recorded: did not have decreased RARβ2 mRNA levels”.
